Test results taken from BindingDB's records for doi:10.1038/nchembio.1930 (Albert Einstein College of Medicine, 2015).

Tests used:
Details in all cases: 25 °C
[1] = target: Isocitrate dehydrogenase [NADP] cytoplasmic (Homo sapiens, UniProt O75874); test: Diaphorase/Resazurin Coupled Assay
Experimental: (§1) For WT IDH1 and IDH2, reactions were conducted at room temperature in 384-well Greiner black microtiter plates in a total volume of 10 μL of assay buffer. […] Reactions were conducted in duplicate and run kinetically. After each addition, plates were centrifuged for 60 s to ensure complete mixing of reagents.

[2] = target: T1, Isocitrate dehydrogenase [NADP], mitochondrial (Homo sapiens, UniProt P48735); test: Diaphorase/Resazurin Coupled Assay
T1 sequence (P48735 whole entry): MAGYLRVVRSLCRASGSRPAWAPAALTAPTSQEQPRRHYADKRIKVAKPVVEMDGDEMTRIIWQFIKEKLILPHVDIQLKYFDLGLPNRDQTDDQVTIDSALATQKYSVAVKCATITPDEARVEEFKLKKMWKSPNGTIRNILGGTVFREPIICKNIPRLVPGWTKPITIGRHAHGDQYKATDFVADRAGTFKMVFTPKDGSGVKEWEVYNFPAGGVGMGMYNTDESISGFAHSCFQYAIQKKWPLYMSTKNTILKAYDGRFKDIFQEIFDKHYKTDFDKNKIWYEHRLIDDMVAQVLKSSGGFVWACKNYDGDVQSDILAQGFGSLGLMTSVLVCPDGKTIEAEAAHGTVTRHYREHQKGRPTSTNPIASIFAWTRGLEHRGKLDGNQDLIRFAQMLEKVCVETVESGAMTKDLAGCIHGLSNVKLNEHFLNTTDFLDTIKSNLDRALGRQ
Experimental: as §1

[3] = target: Isocitrate dehydrogenase [NADP] cytoplasmic [R132C] (Homo sapiens, UniProt O75874, R132C); test: RapidFire-MS/MS and NADPH Assays
Experimental: (§2) Reactions were conducted in duplicate and quenched with final concentrations of 100 mM EDTA. After each addition plates were centrifuged for 60 s to ensure complete mixing of reagents. […] For the RapidFire-MS/MS analysis, a 0.5 μL aliquot of each well was diluted 200-fold into a separate analysis plate containing 100 μL of a f

[4] = target: Isocitrate dehydrogenase [NADP] cytoplasmic [R132G] (Homo sapiens, UniProt O75874, R132G); test: RapidFire-MS/MS and NADPH Assays
Experimental: as §2

[5] = target: Isocitrate dehydrogenase [NADP] cytoplasmic [R132H] (Homo sapiens, UniProt O75874, R132H); test: RapidFire-MS/MS and NADPH Assays
Experimental: as §2

[6] = target: Isocitrate dehydrogenase [NADP], mitochondrial [R140Q] (Homo sapiens, UniProt P48735, R140Q); test: RapidFire-MS/MS and NADPH Assays
Experimental: as §2

[7] = target: Isocitrate dehydrogenase [NADP], mitochondrial [R172S] (Homo sapiens, UniProt P48735, R172S); test: RapidFire-MS/MS and NADPH Assays
Experimental: as §2

Chain of Isocitrate dehydrogenase [NADP], mitochondrial [R140Q] (P48735 40-452 R140Q limits assumed): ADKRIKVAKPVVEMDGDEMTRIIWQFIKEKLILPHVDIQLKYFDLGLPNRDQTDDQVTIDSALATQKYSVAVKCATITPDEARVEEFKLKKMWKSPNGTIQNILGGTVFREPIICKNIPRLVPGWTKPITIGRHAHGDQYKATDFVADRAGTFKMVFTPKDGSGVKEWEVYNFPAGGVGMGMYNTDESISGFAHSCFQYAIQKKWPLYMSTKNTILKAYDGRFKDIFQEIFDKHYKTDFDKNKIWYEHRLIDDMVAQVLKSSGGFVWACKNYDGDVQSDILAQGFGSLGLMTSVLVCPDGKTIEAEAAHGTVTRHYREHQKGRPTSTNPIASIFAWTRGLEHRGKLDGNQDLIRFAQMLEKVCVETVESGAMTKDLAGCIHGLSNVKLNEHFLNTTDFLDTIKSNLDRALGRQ
Chain of Isocitrate dehydrogenase [NADP], mitochondrial [R172S] (P48735 40-452 R172S limits assumed): as the sequence (P48735 40-452 R140Q limits assumed) above, with Q101R, R133S counted along it
Chain of Isocitrate dehydrogenase [NADP] cytoplasmic (O75874 whole entry): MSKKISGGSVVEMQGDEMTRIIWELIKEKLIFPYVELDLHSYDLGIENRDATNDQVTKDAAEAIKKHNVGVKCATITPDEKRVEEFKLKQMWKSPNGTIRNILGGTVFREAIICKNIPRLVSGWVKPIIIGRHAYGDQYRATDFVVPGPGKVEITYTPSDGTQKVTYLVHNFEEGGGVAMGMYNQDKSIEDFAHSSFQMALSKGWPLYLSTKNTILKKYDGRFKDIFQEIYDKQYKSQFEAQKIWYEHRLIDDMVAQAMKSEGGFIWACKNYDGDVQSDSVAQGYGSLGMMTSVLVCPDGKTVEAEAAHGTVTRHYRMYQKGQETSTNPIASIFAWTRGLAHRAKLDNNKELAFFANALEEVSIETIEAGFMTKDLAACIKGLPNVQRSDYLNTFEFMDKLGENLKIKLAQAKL
Chain of Isocitrate dehydrogenase [NADP] cytoplasmic [R132H] (O75874 2-414 R132H limits assumed): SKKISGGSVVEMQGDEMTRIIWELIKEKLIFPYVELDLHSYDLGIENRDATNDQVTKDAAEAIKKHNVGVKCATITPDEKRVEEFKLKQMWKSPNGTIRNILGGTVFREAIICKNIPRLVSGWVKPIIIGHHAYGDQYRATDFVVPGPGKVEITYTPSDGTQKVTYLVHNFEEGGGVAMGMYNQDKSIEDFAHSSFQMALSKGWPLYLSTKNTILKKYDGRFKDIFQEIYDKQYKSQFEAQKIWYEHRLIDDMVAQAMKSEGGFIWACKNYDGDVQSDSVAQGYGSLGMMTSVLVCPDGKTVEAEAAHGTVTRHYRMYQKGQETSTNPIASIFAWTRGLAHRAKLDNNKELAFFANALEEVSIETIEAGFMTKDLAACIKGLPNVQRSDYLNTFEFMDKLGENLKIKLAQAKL
Chain of Isocitrate dehydrogenase [NADP] cytoplasmic [R132C] (O75874 2-414 R132C limits assumed): as the sequence (O75874 2-414 R132H limits assumed) above, with H131C counted along it
Chain of Isocitrate dehydrogenase [NADP] cytoplasmic [R132G] (O75874 2-414 R132G limits assumed): as the sequence (O75874 2-414 R132H limits assumed) above, with H131G counted along it

SMILES | IC50 [1] | IC50 [2] | IC50 [3] | IC50 [4] | IC50 [5] | IC50 [6] | IC50 [7]
Cc1cccc(NC(=O)c2nn(Cc3c[nH]cn3)c3c2CN(C(=O)c2ccc[nH]2)CC3)c1 [GSK990] | > 100 µM | > 100 µM | 4.49 µM | 23.3 µM | 10.9 µM | > 100 µM | > 100 µM
C[C@H](O)c1cccc(NC(=O)c2nn(Cc3ccc(F)cc3)c3c2CN(C(=O)c2ccc[nH]2)C[C@H]3C)c1 [GSK321] | – | 0.496 µM | – | – | – | 1.36 µM | 1.03 µM
